Results published in ChEMBL document CHEMBL1201862, “PubChem BioAssay data set” (2004).
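Tested at 5 concentrations; 48 h exposure; 96-well plates; endpoints linearly interpolated, else capped at highest concentration. The concentration for 50% growth inhibition is given as GI50.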 Active and inactive are the calls of the source. No stated cut-off is given here; in the data, active = GI50 up to about 1.1 µM and inactive = higher.

Columns and labels:
Assay in all cases: NCI anticancer screen, dose series, 48 h
EKVX = test system: EKVX
SK-MEL-28 = test system: SK-MEL-28
LOX IMVI = test system: LOX IMVI
SN12C = test system: SN12C
IGROV-1 = test system: IGROV-1
SK-MEL-2 = test system: SK-MEL-2
CAKI-1 = test system: CAKI-1
A549 = test system: A549
OVCAR-8 = test system: OVCAR-8
UACC-257 = test system: UACC-257
KM12 = test system: KM12
HCC 2998 = test system: HCC 2998
OVCAR-3 = test system: OVCAR-3
786-0 = test system: 786-0
BT-549 = test system: BT-549
NCI-H226 = test system: NCI-H226
MDA-N = test system: MDA-N
RPMI-8226 = test system: RPMI-8226
T47D = test system: T47D

Structure (SMILES)	GI50 (EKVX)	GI50 (SK-MEL-28)	GI50 (LOX IMVI)	GI50 (SN12C)	GI50 (IGROV-1)	GI50 (SK-MEL-2)	GI50 (CAKI-1)	GI50 (A549)	GI50 (OVCAR-8)	GI50 (UACC-257)	GI50 (KM12)	GI50 (HCC 2998)	GI50 (OVCAR-3)	GI50 (786-0)	GI50 (BT-549)	GI50 (NCI-H226)	GI50 (MDA-N)	GI50 (RPMI-8226)	GI50 (T47D)
c1ccc(/N=C2\SC(c3ccccc3)CN2C23CC4CC(CC(C4)C2)C3)cc1 (configuration not stated)	> 100 µM (inactive)	> 100 µM (inactive)	> 100 µM (inactive)	> 100 µM (inactive)	> 100 µM (inactive)	> 100 µM (inactive)	> 100 µM (inactive)	> 100 µM (inactive)	> 100 µM (inactive)	> 100 µM (inactive)	> 100 µM (inactive)	> 100 µM (inactive)	> 100 µM (inactive)	> 100 µM (inactive)	> 100 µM (inactive)	> 100 µM (inactive)	> 100 µM (inactive)	> 100 µM (inactive)	–
COC(=O)C1=CSC2(S1)C(C(=O)OC)=CSc1c2ss/c1=N\c1ccccc1 (configuration not stated)	4.59 µM (inactive)	2.38 µM (inactive)	1.67 µM (inactive)	1.88 µM (inactive)	2.47 µM (inactive)	2 µM (inactive)	2.98 µM (inactive)	2.52 µM (inactive)	1.81 µM (inactive)	2.43 µM (inactive)	2.68 µM (inactive)	1.72 µM (inactive)	3.24 µM (inactive)	1.49 µM (inactive)	2.74 µM (inactive)	–	2.17 µM (inactive)	0.497 µM (active)	7.64 µM (inactive)
Cc1cn(C2CC(N=[N+]=[N-])C(C(=O)O)O2)c(=O)[nH]c1=O (configuration not stated)	> 100 µM (inactive)	–	–	> 100 µM (inactive)	> 100 µM (inactive)	> 100 µM (inactive)	> 100 µM (inactive)	> 100 µM (inactive)	> 100 µM (inactive)	> 100 µM (inactive)	> 100 µM (inactive)	> 100 µM (inactive)	> 100 µM (inactive)	> 100 µM (inactive)	> 100 µM (inactive)	> 100 µM (inactive)	> 100 µM (inactive)	> 100 µM (inactive)	–
CN(C)CCCNC(CC#N)CCC#N (configuration not stated)	> 10 µM (inactive)	> 10 µM (inactive)	> 10 µM (inactive)	> 10 µM (inactive)	> 10 µM (inactive)	> 10 µM (inactive)	> 10 µM (inactive)	> 10 µM (inactive)	> 10 µM (inactive)	> 10 µM (inactive)	> 10 µM (inactive)	> 10 µM (inactive)	> 10 µM (inactive)	> 10 µM (inactive)	> 10 µM (inactive)	> 10 µM (inactive)	> 10 µM (inactive)	–	> 10 µM (inactive)
CC1CCC(C(C)C2C(O)CC3C4CC=C5CC(O)CCC5(C)C4CCC32C)NC1 (configuration not stated)	> 100 µM (inactive)	> 100 µM (inactive)	21.3 µM (inactive)	20.3 µM (inactive)	–	> 100 µM (inactive)	–	83 µM (inactive)	15.9 µM (inactive)	34.5 µM (inactive)	–	11.9 µM (inactive)	–	32.2 µM (inactive)	> 100 µM (inactive)	70.8 µM (inactive)	–	–	62.1 µM (inactive)
COc1cc(C2C3=C(CCCC3=O)N(c3ccc(C)cc3)C3=C2C(=O)CCC3)c([N+](=O)[O-])cc1OC	> 100 µM (inactive)	87.3 µM (inactive)	83.6 µM (inactive)	> 100 µM (inactive)	> 100 µM (inactive)	–	> 100 µM (inactive)	54.5 µM (inactive)	–	–	> 100 µM (inactive)	> 100 µM (inactive)	96.2 µM (inactive)	63.1 µM (inactive)	> 100 µM (inactive)	76.9 µM (inactive)	–	57.3 µM (inactive)	–
O=c1[nH]nc(-c2ccccc2)c2[nH]c3c(c12)CCCc1ccccc1-3	10.6 µM (inactive)	–	16.5 µM (inactive)	16.6 µM (inactive)	12.5 µM (inactive)	–	22 µM (inactive)	9.46 µM (inactive)	17.4 µM (inactive)	18.7 µM (inactive)	10.2 µM (inactive)	14.8 µM (inactive)	19.3 µM (inactive)	14.2 µM (inactive)	20.7 µM (inactive)	16.1 µM (inactive)	12.5 µM (inactive)	11.5 µM (inactive)	8.97 µM (inactive)
COC1C(=O)CCC2(CO2)C1(O)C1(C)OC1CCC(C)C (configuration not stated)	> 100 µM (inactive)	21.8 µM (inactive)	–	23.3 µM (inactive)	48.1 µM (inactive)	–	> 100 µM (inactive)	–	28 µM (inactive)	> 100 µM (inactive)	10.2 µM (inactive)	47.2 µM (inactive)	> 100 µM (inactive)	47.2 µM (inactive)	> 100 µM (inactive)	> 100 µM (inactive)	29.4 µM (inactive)	> 100 µM (inactive)	52.8 µM (inactive)
Clc1ccc(CNc2nc(Cl)c3nc[nH]c3n2)cc1Cl	25.2 µM (inactive)	–	–	21.6 µM (inactive)	42.7 µM (inactive)	22.3 µM (inactive)	23.2 µM (inactive)	23.1 µM (inactive)	17.9 µM (inactive)	13.5 µM (inactive)	29.2 µM (inactive)	19.8 µM (inactive)	18.9 µM (inactive)	27.7 µM (inactive)	24.2 µM (inactive)	21.9 µM (inactive)	26.4 µM (inactive)	–	6.71 µM (inactive)
N#Cc1c(-c2ccccc2)[nH]c(=O)n(C2OC(CO)C(O)C(O)C2O)c1=O (configuration not stated)	> 100 µM (inactive)	> 100 µM (inactive)	–	> 100 µM (inactive)	–	> 100 µM (inactive)	> 100 µM (inactive)	> 100 µM (inactive)	> 100 µM (inactive)	> 100 µM (inactive)	> 100 µM (inactive)	> 100 µM (inactive)	> 100 µM (inactive)	> 100 µM (inactive)	> 100 µM (inactive)	–	–	> 100 µM (inactive)	> 100 µM (inactive)
COc1ccc(NC(=S)c2ccc(CN3CCCCC3)s2)cc1	18.8 µM (inactive)	17.3 µM (inactive)	18.1 µM (inactive)	47 µM (inactive)	22.8 µM (inactive)	19.4 µM (inactive)	27.9 µM (inactive)	20.3 µM (inactive)	17.9 µM (inactive)	16.6 µM (inactive)	17.7 µM (inactive)	16.6 µM (inactive)	33.6 µM (inactive)	17.8 µM (inactive)	17 µM (inactive)	–	18.5 µM (inactive)	23.4 µM (inactive)	19.8 µM (inactive)
CCCCCCCCC/C=C1/CC(CO)(COC(=O)C2CCCCC2)OC1=O (configuration not stated)	> 100 µM (inactive)	> 100 µM (inactive)	72.4 µM (inactive)	> 100 µM (inactive)	> 100 µM (inactive)	> 100 µM (inactive)	> 100 µM (inactive)	> 100 µM (inactive)	> 100 µM (inactive)	> 100 µM (inactive)	> 100 µM (inactive)	> 100 µM (inactive)	> 100 µM (inactive)	> 100 µM (inactive)	> 100 µM (inactive)	> 100 µM (inactive)	86.7 µM (inactive)	–	> 100 µM (inactive)
O=C(O)Cc1cc(O)c(CC(=O)O)cc1O	> 100 µM (inactive)	> 100 µM (inactive)	> 100 µM (inactive)	> 100 µM (inactive)	> 100 µM (inactive)	> 100 µM (inactive)	> 100 µM (inactive)	> 100 µM (inactive)	> 100 µM (inactive)	> 100 µM (inactive)	> 100 µM (inactive)	> 100 µM (inactive)	> 100 µM (inactive)	> 100 µM (inactive)	> 100 µM (inactive)	> 100 µM (inactive)	> 100 µM (inactive)	–	> 100 µM (inactive)
CC(=O)C12C[C@](C#N)(N3CCCCCC3)C1C=Cc1ccccc12 (some centres not stated)	> 100 µM (inactive)	> 100 µM (inactive)	–	> 100 µM (inactive)	> 100 µM (inactive)	–	> 100 µM (inactive)	> 100 µM (inactive)	> 100 µM (inactive)	> 100 µM (inactive)	> 100 µM (inactive)	> 100 µM (inactive)	> 100 µM (inactive)	> 100 µM (inactive)	> 100 µM (inactive)	> 100 µM (inactive)	> 100 µM (inactive)	> 100 µM (inactive)	> 100 µM (inactive)
CC1(C)CC(O)C(C)(C)[C@@H](O)C1 (some centres not stated)	> 100 µM (inactive)	> 100 µM (inactive)	> 100 µM (inactive)	> 100 µM (inactive)	> 100 µM (inactive)	> 100 µM (inactive)	> 100 µM (inactive)	> 100 µM (inactive)	> 100 µM (inactive)	> 100 µM (inactive)	> 100 µM (inactive)	> 100 µM (inactive)	–	> 100 µM (inactive)	> 100 µM (inactive)	> 100 µM (inactive)	> 100 µM (inactive)	–	> 100 µM (inactive)
CC(=O)O[C@H]1C(=O)[C@@]2(C)[C@H]([C@H](OC(=O)c3ccccc3)[C@]3(O)C[C@H](OC(=O)[C@H](O)[C@@H](NC(=O)OC(C)(C)C)c4ccco4)C(C)=C1C3(C)C)[C@]1(OC(C)=O)CO[C@@H]1C[C@@H]2O	14.7 µM (inactive)	0.205 µM (active)	0.00546 µM (active)	< 0.005 µM (active)	0.00682 µM (active)	0.00723 µM (active)	0.00802 µM (active)	< 0.005 µM (active)	0.00615 µM (active)	11.1 µM (inactive)	< 0.005 µM (active)	< 0.005 µM (active)	0.00769 µM (active)	0.00614 µM (active)	< 0.005 µM (active)	–	< 0.005 µM (active)	< 0.005 µM (active)	0.264 µM (active)
